We go through two molecules from patent publication US9561197B2 (Horizon Therapeutics, LLC, priority 2012, dated 2017).

Where two headings read alike, the source gives them in different places.

For data set [1] the following is noted: Patient 1.
Assay in data set [2]: not given
The source holds these as a separate data set.

The conditions of data set [3]: Patient 2.

For the molecule `O=C(CCCc1ccccc1)OCC(COC(=O)CCCc1ccccc1)OC(=O)CCCc1ccccc1` [HPN-100, glyceryl tri-[4-phenylbutyrate]], the ammonia in data set [1] (HPN-100 9 mL/day, after overnight fasting) was 55 µmol/L; the ammonia in data set [1] (HPN-100 9 mL/day, midday several hours after lunch) is 117 µmol/L; the ammonia in data set [1] (HPN-100 12 mL/day for one week, after overnight fasting) stood at 9 µmol/L; the ammonia in data set [1] (HPN-100 12 mL/day for one week, midday) turned out to be 35 µmol/L; the ammonia (Patient 3, HPN-100 18 mL/day for the past month) stood at 22 µmol/L; the ammonia in data set [2] (Patient 7, HPN-100 6 mL BID, follow up after 3 months (blood ammonia 85 μmol/L before therapy)) amounted to 30 µmol/L. In addition, the “symptoms (headache, lack of appetite)” value in data set [1] (after one week at HPN-100 12 mL/day) is given as “all symptoms resolved”. The PAGN (human, in vivo) was 259 µg/L. For the same molecule, the complaints entry (human, in vivo) is “did not have any complaints”. The “episodes of HE” value in data set [2] (Patient 7, HPN-100 6 mL BID, during 3 months) is “no episodes of HE”. Further, the unusual symptoms result in data set [2] (human, in vivo) is on record as “did not report any unusual symptoms”. Further, the “unusual symptoms such as dizziness, headache, or nausea” value in data set [2] (human, in vivo) is “had not experienced any unusual symptoms”.

In data set [3] (NaPBA 450 mg/Kg/day for one week), sodium phenylbutyrate [NaPBA] returned an ammonia of 20 µmol/L. For the same molecule, in data set [3] (NaPBA 600 mg/kg per day), the ammonia levels was below 9 µmol/L.
